Results published in ChEMBL document CHEMBL4390652, “Design, biological evaluation and X-ray crystallography of nanomolar multifunctional ligands targeting simultaneously acetylcholinesterase and glycogen synthase kinase-3” (Eur J Med Chem, 2019).

Molecular target: Cyclin-dependent kinase 5/CDK5 activator 1 (Homo sapiens, UniProt Q00535)
Format: protein-complex assay
Description: Inhibition of human recombinant CDK5/p25 using histone H1 as substrate in presence of [gamma-33P]ATP incubated for 30 mins by liquid scintillation counting assay

Cyclin-dependent kinase 5/CDK5 activator 1, sequence (Q00535 whole entry): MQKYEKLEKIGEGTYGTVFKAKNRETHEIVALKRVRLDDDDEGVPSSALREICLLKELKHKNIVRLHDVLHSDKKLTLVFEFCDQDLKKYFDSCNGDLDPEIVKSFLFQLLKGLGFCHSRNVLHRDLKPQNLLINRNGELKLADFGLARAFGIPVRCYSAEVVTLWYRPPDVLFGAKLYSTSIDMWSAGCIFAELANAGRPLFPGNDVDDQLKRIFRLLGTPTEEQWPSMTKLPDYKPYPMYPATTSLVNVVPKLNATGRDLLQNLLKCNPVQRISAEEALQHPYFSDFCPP
Cyclin-dependent kinase 5/CDK5 activator 1, sequence (Q15078 whole entry, further chain): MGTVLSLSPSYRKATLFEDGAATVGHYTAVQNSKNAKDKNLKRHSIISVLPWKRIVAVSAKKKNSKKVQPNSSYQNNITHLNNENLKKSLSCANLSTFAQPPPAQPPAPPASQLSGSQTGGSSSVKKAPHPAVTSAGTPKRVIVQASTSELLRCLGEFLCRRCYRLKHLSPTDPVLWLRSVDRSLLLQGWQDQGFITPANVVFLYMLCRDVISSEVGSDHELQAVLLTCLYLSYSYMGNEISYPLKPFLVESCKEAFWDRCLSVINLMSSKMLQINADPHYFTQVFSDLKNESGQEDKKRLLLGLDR

`O=C(Nc1cc(COCc2cn(CCNc3ccnc4ccccc34)nn2)ccn1)Nc1cccc2c1C1CCCCN1C2=O` (racemic) and `O=C(Nc1cc(COCc2cn(CCNc3ccncc3)nn2)ccn1)Nc1cccc2c1C1CCCCN1C2=O` (racemic) are within 1.5-fold of each other in IC50: 240 nM for the first, 200 nM for the second.

Going from `c1ccc2c(NCCn3ccnn3)c3c(nc2c1)CCCC3` to `O=C(Nc1cc(COCc2cn(CCCc3ccccc3)nn2)ccn1)Nc1cccc2c1C1CCCCN1C2=O` (racemic), the IC50 falls from greater than 10000 nM to 260 nM.

`C#Cc1ccnc(NC(=O)Nc2cccc3c2[C@@H]2CCCCN2C3=O)c1` and `C#Cc1ccnc(NC(=O)Nc2cccc3c2C2CCCCN2C3=O)c1` (racemic) are within 1.5-fold of each other in IC50: 50 nM for the first, 68 nM for the second.

Going from `Cn1cc(COCc2ccnc(NC(=O)Nc3cccc4c3C3CCCCN3C4=O)c2)nn1` (racemic) to `C#Cc1ccnc(NC(=O)Nc2cccc3c2[C@H]2CCCCN2C3=O)c1`, the IC50 falls from 250 nM to 18 nM (14-fold).

Going from `C#Cc1ccc(NC(=O)Nc2cccc3c2C2CCCCN2C3=O)nc1` (racemic) to `C#Cc1cccc(NC(=O)Nc2cccc3c2C2CCCCN2C3=O)n1` (racemic), the IC50 falls from greater than 10000 nM to 80 nM. The second is the more potent here.

Molecular target: Glycogen synthase kinase-3 (Sus scrofa, UniProt B2LUN4+I6LNT8)
Description: Inhibition of native porcine brain GSK-3alpha/beta using GS-1 as substrate incubated for 30 mins in presence of [gamma-33P]ATP by liquid scintillation counting assay

Work on `O=C(Nc1cc(COCc2cn(CCNc3ccnc4ccccc34)nn2)ccn1)Nc1cccc2c1C1CCCCN1C2=O` (racemic) yielded an IC50 greater than 10000 nM.
`c1ccc2c(NCCn3ccnn3)c3c(nc2c1)CCCC3` was tested, and the IC50 was greater than 10000 nM.
For `C#Cc1ccc(NC(=O)Nc2cccc3c2C2CCCCN2C3=O)nc1` (racemic), the IC50 was greater than 10000 nM.

In order of falling IC50:
1. C#Cc1cccc(NC(=O)Nc2cccc3c2C2CCCCN2C3=O)n1 (racemic)  300 nM
2. C#Cc1ccnc(NC(=O)Nc2cccc3c2[C@@H]2CCCCN2C3=O)c1  90 nM
3. C#Cc1ccnc(NC(=O)Nc2cccc3c2C2CCCCN2C3=O)c1 (racemic)  41 nM
4. C#Cc1ccnc(NC(=O)Nc2cccc3c2[C@H]2CCCCN2C3=O)c1  33 nM
5. O=C(Nc1cc(COCc2cn(CCNc3ccncc3)nn2)ccn1)Nc1cccc2c1C1CCCCN1C2=O (racemic)  30 nM
6. Cn1cc(COCc2ccnc(NC(=O)Nc3cccc4c3C3CCCCN3C4=O)c2)nn1 (racemic)  25 nM
7. O=C(Nc1cc(COCc2cn(CCCc3ccccc3)nn2)ccn1)Nc1cccc2c1C1CCCCN1C2=O (racemic)  8 nM
